Earlier results, collected in article PMC4862372 (Bioorganic & medicinal chemistry, 2016).

Test system: Huh7 cells
Conditions: high-throughput screen performed by GNF

**Q.** With `O=C(NCCc1nc(-c2ccccc2)cs1)c1ccccc1` [Compound 1, 2-(2-Benzamido)ethyl-4-phenylthiazole] as the molecule, how does the “Toxicity to mammalian (Huh7) cells” value read?
**A.** non-toxic
